# According to patent US12060347B2 (BRISTOL-MYERS SQUIBB COMPANY, priority 2016, dated 2024):
# pIC50: −log10 of the molar value.
# Target: T1, human PAR4 (Homo sapiens, UniProt Q96RI0)
# T1 construct: expressed in transfected cells; host or cells: HEK293 PAR4 Clone 1.2A (BMS Arctic ID 383940)
# T1 sequence (Q96RI0 18-385): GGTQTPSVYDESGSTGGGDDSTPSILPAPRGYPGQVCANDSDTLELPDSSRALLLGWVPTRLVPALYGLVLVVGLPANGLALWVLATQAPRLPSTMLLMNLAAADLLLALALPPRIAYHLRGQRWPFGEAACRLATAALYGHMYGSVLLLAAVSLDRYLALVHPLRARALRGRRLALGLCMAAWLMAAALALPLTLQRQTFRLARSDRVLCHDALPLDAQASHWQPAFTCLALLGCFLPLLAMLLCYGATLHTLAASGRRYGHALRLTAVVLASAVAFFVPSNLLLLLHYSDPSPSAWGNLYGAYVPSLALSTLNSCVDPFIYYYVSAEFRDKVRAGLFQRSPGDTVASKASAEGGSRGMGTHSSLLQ
# Assay: PAR4 FLIPR assay: antagonism of agonist-peptide-induced calcium mobilization in PAR4-expressing HEK293 cells
# Type: cell-based
# Settings: H-Ala-Phe(4-F)-[…]NH2-induced intracellular calcium mobilization, 11-point curves
row,Structure (SMILES),pIC50
1,"COc1cnc2c(-c3nc4cc(F)c(OC[C@@H](C)OC(=O)Nc5ccnc(C(=O)NCCO)c5)cc4s3)cc(C)cc2n1 [Example 442, (R)-1-((5-fluoro-2-(2-methoxy-7-methylquinoxalin-5-yl)benzo[d]thiazol-6-yl)oxy)propan-2-yl (2-((2-hydroxyethyl)carbamoyl)pyridin-4-yl)carbamate]",9.10
2,"COc1cnc2c(-c3nc4cc(F)c(OC[C@@H](C)OC(=O)Nc5ccc(C(=O)NCCO)nc5)cc4s3)cc(C)cc2n1 [Example 445, (R)-1-((5-fluoro-2-(2-methoxy-7-methylquinoxalin-5-yl)benzo[d]thiazol-6-yl)oxy)propan-2-yl (6-((2-hydroxyethyl)carbamoyl)pyridin-3-yl)carbamate]",8.49
3,"COc1cnc2c(-c3nc4cc(F)c(OC[C@@H](C)OC(=O)Nc5ccc(C(=O)NCC(C)(C)O)nc5)cc4s3)cc(C)cc2n1 [Example 448, (R)-1-((5-fluoro-2-(2-methoxy-7-methylquinoxalin-5-yl)benzo[d]thiazol-6-yl)oxy)propan-2-yl (6-((2-hydroxy-2-methylpropyl)carbamoyl)pyridin-3-yl)carbamate]",8.68
4,"COc1cnc2c(-c3nc4cc(F)c(OC[C@@H](C)OC(=O)Nc5ccc(C(=O)NC[C@@H](C)O)nc5)cc4s3)cc(C)cc2n1 [Example 449, (R)-1-((5-fluoro-2-(2-methoxy-7-methylquinoxalin-5-yl)benzo[d]thiazol-6-yl)oxy)propan-2-yl (6-(((R)-2-hydroxypropyl)carbamoyl)pyridin-3-yl)carbamate]",9.52
5,"COc1cnc2c(-c3nc4cc(F)c(OC[C@@H](C)OC(=O)Nc5ccc(C(=O)NC[C@H](C)O)nc5)cc4s3)cc(C)cc2n1 [Example 450, (R)-1-((5-fluoro-2-(2-methoxy-7-methylquinoxalin-5-yl)benzo[d]thiazol-6-yl)oxy)propan-2-yl (6-(((S)-2-hydroxypropyl)carbamoyl)pyridin-3-yl)carbamate]",9.30
6,"COc1cnc2c(-c3nc4cc(F)c(O[C@@H](C)[C@@H](C)OC(=O)Nc5ccnc(C(=O)NCCO)c5)cc4s3)cc(C)cc2n1 [Example 451, (2R,3S)-3-((5-fluoro-2-(2-methoxy-7-methylquinoxalin-5-yl)benzo[d]thiazol-6-yl)oxy)butan-2-yl (2-((2-hydroxyethyl)carbamoyl)pyridin-4-yl)carbamate]",9.15

# Continued by rising pIC50, values first:
row,pIC50,Structure (SMILES)
1,7.68,"COc1cnc2c(-c3nc4cc(F)c(OC[C@@H](C)OC(=O)Nc5ccnc(C(=O)N(C)C)c5)cc4s3)cc(C)cc2n1 [Example 447, (R)-1-((5-fluoro-2-(2-methoxy-7-methylquinoxalin-5-yl)benzo[d]thiazol-6-yl)oxy)propan-2-yl (2-(dimethylcarbamoyl)pyridin-4-yl)carbamate]"
2,8.64,"COc1cnc2c(-c3nc4cc(F)c(O[C@@H](C)[C@@H](C)OC(=O)Nc5ccc(C(=O)NCCC(C)(C)O)nc5)cc4s3)cc(C)cc2n1 [Example 446, (2R,3S)-3-((5-fluoro-2-(2-methoxy-7-methylquinoxalin-5-yl)benzo[d]thiazol-6-yl)oxy)butan-2-yl (6-((3-hydroxy-3-methylbutyl)carbamoyl)pyridin-3-yl)carbamate]"
3,9.10,"COc1cnc2c(-c3nc4cc(F)c(OC[C@@H](C)OC(=O)Nc5ccnc(C(N)=O)c5)cc4s3)cc(C)cc2n1 [Example 444, (R)-1-((5-fluoro-2-(2-methoxy-7-methylquinoxalin-5-yl)benzo[d]thiazol-6-yl)oxy)propan-2-yl (2-carbamoylpyridin-4-yl)carbamate]"
4,9.22,"CNC(=O)c1cc(NC(=O)O[C@H](C)COc2cc3sc(-c4cc(C)cc5nc(OC)cnc45)nc3cc2F)ccn1 [Example 443, (R)-1-((5-fluoro-2-(2-methoxy-7-methylquinoxalin-5-yl)benzo[d]thiazol-6-yl)oxy)propan-2-yl (2-(methylcarbamoyl)pyridin-4-yl)carbamate]"
